Assay [1] concerns the target T1, HSP47 (Canis lupus familiaris, UniProt C7C419). Particulars: CMP coated 500 ng/well, HSP47 1:4 dilution series from 8 or 10 μM, anti-His-HRP/TMB read-out, four-parameter logistic fit, triplicates.
Description: Purified collagen model peptides were coated onto a Nunc MaxiSorp (Thermo Fisher Scientific), 500 ng/well. Plates were washed after 1 h at RT with TBS-T 0.05% and free binding sites were blocked with 1% (w/v) BSA in TBS. […] Assays were either stopped with 10% H2SO4 and absorption measured at 450 nm or continuously monitored at 370 nm every 20 min for 1 h. In latter cases, timepoints showing the highest signal-to-noise ratio were used for analysis. […] Results were analyzed using Gen5 (BioTek) and Origin 2018.
The values shown for ELISA-style binding assays represent the average of triplicates. Data from affinity assays were analyzed using a four-parameter logistic fit function ([44]) in Origin 2018.
Assay [2] concerns the target T1, HSP47. Particulars: gold-labeled HSP47 200 nM, foldon-CMP 100 nM (2:1); 30 fields of 1 μm2 counted.
Description: Briefly, mixed protein solutions were adsorbed to 400 mesh carbon-coated copper grids and stained with 0.75% (w/v) uranyl formate. Specimens were examined in a Philips/FEICM 100 TWIN transmission electron microscope operated at 60 kV accelerating voltage. Images were recorded with a side-mounted Olympus Veleta camera with a resolution of 2048 × 2048 pixels (2k × 2K) and the ITEM acquisitions software.
The target of assay [3] is T1, HSP47. Particulars: normalized to water at 20 °C.
Description: All samples were incubated for 30 min at RT and afterward centrifuged at 42.000 rpm in a ProteomeLab XL-A analytical ultracentrifuge (Beckman Coulter) equipped with a fluorescence detection system (AU-FDS; Aviv Biomedical Inc). In this setup 42.000 rpm translates to 117.552g at the top (r = 59.5 mm) and 142.248g at the bottom (r = 72.0 mm) of the sample cell. Samples were spun in standard 12 mm double-sector epon-filled centerpieces, covered with quartz windows. All measurements were performed in triplicates and key findings repeated three times.
The resulting sedimentation velocity profiles were analyzed using DCDT+ version 2.4.3 software by John Philo ([40]). The buffer density (ρ) and buffer viscosity (η) of the buffer used for data analysis were calculated with [sequence]
The mark [4] stands for this setting: read-out: KD determined by curve fittings, Fig. 1D.
Setting [5] is: higher molar ratios of HSP47 (up to 20 μM) to 1 μM ATTO488-labeled CMP.
The mark [6] stands for this setting: 1–5 μM HSP47 to 1 μM ATTO488-labeled CMP, 20 mM HEPES, 150 mM NaCl pH 7.5.

“And” between values parts separate entries of the source, which are not always exact repeats. Equal entries are not always repeated. Where two headings read alike, the source gives them in different places.

T1 sequence (C7C419 entry or part of it): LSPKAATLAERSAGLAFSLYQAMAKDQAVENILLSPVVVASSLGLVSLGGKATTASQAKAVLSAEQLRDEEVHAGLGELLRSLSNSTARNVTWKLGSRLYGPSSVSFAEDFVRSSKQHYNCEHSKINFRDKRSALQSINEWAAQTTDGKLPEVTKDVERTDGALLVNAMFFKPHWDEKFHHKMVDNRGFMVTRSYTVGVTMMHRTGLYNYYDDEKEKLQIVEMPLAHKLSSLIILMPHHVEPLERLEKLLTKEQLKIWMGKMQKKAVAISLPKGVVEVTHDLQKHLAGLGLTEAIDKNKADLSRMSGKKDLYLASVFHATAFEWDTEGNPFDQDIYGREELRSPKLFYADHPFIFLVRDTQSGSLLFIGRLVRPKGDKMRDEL

For GARGLP, the Kd at HSP47 [1] (setting [4]) was 0.0241 ± 0.0054 µM. Also, on HSP47 [2], the “Stoichiometry, 0 Au / foldon (no HSP47 bound)” value came to 52% and the “Stoichiometry, 1 Au / foldon (one HSP47 bound)” value turned out to be 46%. Moreover, on HSP47 [3] (setting [5]), the “sedimentation coefficient of the HSP47:CMP complex” value (from here on “sedimentation coefficient”) is listed as “even higher sedimentation rates”.

Take GPRGFP: the Kd at HSP47 [1] (setting [4]) came to 0.012 ± 0.0014 µM. Moreover, at HSP47 [2], the “Stoichiometry, 0 Au / foldon (no HSP47 bound)” value was determined as 54% and the “Stoichiometry, 1 Au / foldon (one HSP47 bound)” value was 45%. Moreover, the “sedimentation coefficient” value at HSP47 [3] (setting [6]) is recorded as about 4 S. On HSP47 [3] (setting [5]), the “sedimentation coefficient” value is given as “stagnated”.

For the substance GPRGPP, the Kd on HSP47 [1] (Fig. 1C) is 0.036 ± 0.003 µM; at HSP47 [1] (setting [4]), 0.0217 µM and ~0.021 µM. For the same substance, on HSP47 [2], the “Stoichiometry, 1 Au / foldon (one HSP47 bound)” value came to 29%. Also, the “Stoichiometry, 2 Au / foldon (two HSP47 bound)” value at HSP47 [2] was 18%. Besides, the “sedimentation coefficient” value was about 4 S on HSP47 [3] (setting [6]) and about 5 S on HSP47 [3] (setting [5]).

For the origin of these results see article PMC8626583, “Collagen’s primary structure determines collagen:HSP47 complex stoichiometry” (The Journal of Biological Chemistry, 2021).
